Patent publication US10995117B2, “Peptide for skin regeneration or wound treatment and use thereof” (KINE SCIENCES CO., LTD., priority 2016, dated 2021)

Tests used:
tyrosinase = target: T1, tyrosinase (Mus musculus, UniProt P11344); assay: Tyrosinase activity of melanoma cell line (L-DOPA); assay type: cell-based; settings: 24 hours
T1 construct: endogenous in cells; host or cells: B16F10 melanoma cells stimulated with alpha-MSH; Triton X-100 lysate supernatant
T1 sequence (P11344 19-533): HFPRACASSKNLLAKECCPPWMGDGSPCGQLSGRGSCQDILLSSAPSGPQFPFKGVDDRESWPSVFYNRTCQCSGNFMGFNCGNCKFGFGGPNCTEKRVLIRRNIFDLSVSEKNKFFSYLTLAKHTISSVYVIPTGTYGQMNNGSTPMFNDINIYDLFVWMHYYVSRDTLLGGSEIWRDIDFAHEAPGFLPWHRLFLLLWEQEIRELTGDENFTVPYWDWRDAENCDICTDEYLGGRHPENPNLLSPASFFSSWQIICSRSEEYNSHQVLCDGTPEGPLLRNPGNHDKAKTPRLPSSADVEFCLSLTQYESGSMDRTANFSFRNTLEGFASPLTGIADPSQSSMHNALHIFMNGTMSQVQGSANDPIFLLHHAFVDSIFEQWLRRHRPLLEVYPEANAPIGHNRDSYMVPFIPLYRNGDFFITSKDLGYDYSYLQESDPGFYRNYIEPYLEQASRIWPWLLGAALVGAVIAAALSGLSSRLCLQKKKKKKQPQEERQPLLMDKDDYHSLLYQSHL
Description: Tyrosinase as a rate-regulating enzyme that catalyzes the reaction in the melanin biosynthesis process was known to play a crucial role in regulating the amount of melanin in the cells. Thus, in Example 4, the tyrosinase activity of the melanoma cell line according to the treatment of the peptide (peptide 1) prepared in Example 1 was evaluated by an experimental method disclosed in the existing document (J. Dermatol. Sci. Vol. 57 (2010) 170-177). The melanoma cell line, B16F10 cells, was divided into a 12 well-plate at a concentration of 1×10^5 cells/well and cultured for 24 hours, and then treated with α-MSH ([…]) and the peptide of the present invention (1, 10, 100 ng/ml), cultured for 24 hours again, and then was washed with PBS and suspended in a 50 mM phosphate buffer (pH 6.8) containing 1% Triton X-100 after washing each well with PBS. After vortexing, the cells was frozen at […] for 30 minutes, dissolved at room temperature, and centrifuged at 1000 g for 10 minutes, and then 40 μl of a supernatant and 100 μl of 10 mM L-DOPA were added to a 96 well-plate and reacted at 37° C. Thereafter, the absorbance was measured at 405 nm with an ELISA reader to confirm the tyrosinase activity of the melanoma cell line. Meanwhile, a separate untreated group was used as a control group and a α-MSH-treated group and a Kojic acid-treated group were used as a positive control group.

[1] = tested on: Col1A1 (collagen type I, alpha 1) mRNA; assay: Col1A1 mRNA expression of human dermal fibroblasts (real-time PCR); assay type: cell-based; settings: at a concentration of 10 ng/ml or more
Description: (§1) Collagen is a main ingredient of skin connective tissues, and increased collagen expression is essential in wound healing such as a gash or skin regeneration. As a result, in Example 2, the production ability of collagen of human dermal fibroblasts (HDF) according to the treatment of the peptide (peptide 1) prepared in Example 1 was evaluated by an experimental method disclosed in the existing document (J. Biol. Chem. 1993 268(14): 9941-9944). First, the human dermal fibroblasts were cultured in a DMEM medium added with 10% fetal bovine […] (FBS), and the cultured cells were divided into a 6-well plate at a concentration of 2×10^5 cell/well and cultured for 24 hours, and then the medium was replaced with 2% FBS. After 24 hours from this, the cells were treated with the peptide (100, 10, 1 ng/ml) of the present invention, and thereafter, an amount of procollagen secreted to the culture medium was measured by using a Procollagen Type I C-peptide (PIP) EIA Kit, RNA was extracted with a Trizol reagent, and then the expression of Col1A1 (collagen type I, alpha 1) mRNA of the human dermal fibroblasts was confirmed through real-time PCR. Meanwhile, a separately untreated group (Control) was used as a control group and a TGF-treated group (TGF-) was used as a positive control group.

human dermal fibroblasts = assay: Procollagen secretion of human dermal fibroblasts (PIP EIA Kit); assay type: cell-based; settings: peptide 100, 10, 1 ng/ml, versus control group and TGF-treated group
Description: as §1

HaCaT cells = assay: Scratch assay, in vitro wound healing model; assay type: cell-based, human; settings: for wound size (quantified) / migration of HaCaT cells: peptide 1 or 10 ng/ml; for migration of HaCaT cells: Mitomycin C pretreated
Description: In Example 5, the wound treatment effect according to the treatment of the peptides (peptides 1 and 2) prepared in Example 1 was confirmed through a scratch assay. A human epithelial cell line, HaCaT cells was cultured for 2 hours by adding Mitomycin C (10 ug/ml) in a serum-free medium to […]. After the cells were treated with the peptide (1 or 10 ng/ml) and TGF-β (1 ng/ml) as a positive control group in a medium added with 10% FBS, the migration ability of cells was observed over time and the reduction in wound size was quantified.

B16F10 cells = assay: Melanin production of melanoma cell line; assay type: cell-based; settings: 24 hours
Description: The color of the skin is determined by an amount of melanin pigment produced by melanoma cells, and many studies have been conducted to improve abnormal pigmentation of the skin. Particularly, excessive pigmentation caused by chronic gashes is considered as a major medical problem, but no definitive treatment method has yet been developed. Thus, in Example 2, the production ability of melanin of a melanoma cell line according to the treatment of the peptide (peptide 1) prepared in Example 1 was evaluated by an experimental method disclosed in the existing document (Life Sci. 2013 Aug. 14; 93(5-6):226-32). The melanoma cell line, B16F10 cells, was cultured in a DMEM medium added with 10% fetal bovine […], and the cultured cells were divided into a 12 well-plate at a concentration of 1×10^5 cells/well. After the culture for 24 hours, α-MSH (10 uM) promoting melanin synthesis and the peptide (1, 10, and 100 ng/ml) of the present invention were treated and cultured again for 24 hours, added with 200 μl of a 1N NaOH solution after washing each well with PBS, and then dissolved at 100° C. for 30 minutes. Thereafter, the absorbance was measured at 405 nm with an ELISA reader to confirm the amount of melanin produced from the melanoma cell line. Meanwhile, an untreated group was used as a control group and a α-MSH-treated group was used as a positive control group.

Balb/c nude mouse [2] = assay: Acute wound animal model, histological change (H&E staining); assay type: in vivo; settings: skin tissue on day 5 after acute wound
Description: (§2) After an 8-week-old Balb/c nude mouse was anesthetized with Avertin (2.5%), the skin of the animal's back was cut by using a circular punch having a 10 mm diameter to induce an acute wound. The peptide was treated (500 ng/one time) at the site of excision total 5 times at 24-hour intervals at the site of excision and reduction of the wound area over time was measured for 14 days and an EGF was used as a positive control group (10 ug/one time). In this case, the peptide was treated with 20% pluronic F-127 (PBS) in a mixture state and the wound sizes over time were measured and digitized using a digital camera and an ImageJ program and compared with each other.
An acute wound was induced in the same manner as in Example 6-1, and the skin tissue was cut on 5 day after the acute wound was induced to prepare tissue fragments. Thereafter, histological changes according to peptide treatment were observed by H&E staining and observing the H&E staining by a microscope. Meanwhile, an EGF was used as a positive control group.

Balb/c nude mouse [3] = assay: Acute wound animal model, change in wound size; assay type: in vivo; settings: 10 mm punch wound, 500 ng/one time, 5 times at 24-hour intervals, 14 days
Description: as §2

Row | tyrosinase activity of the melanoma cell line (tyrosinase; B16F10 cells) | Substance | tyrosinase activity of the melanoma cell line (tyrosinase; B16F10 cells, 10, 100 ng/ml, no significant difference from Kojic acid-treated group) | expression of Col1A1 [1] | secretion amount of procollagen (human dermal fibroblasts) | wound size (quantified) (HaCaT cells; HaCaT cells) | migration of HaCaT cells (HaCaT cells) | production amount of melanin (B16F10 cells; α-MSH (10 uM) plus peptide 1, 10, 100 ng/ml, no significant difference from non-α-MSH-treated group) | epithelialization (Balb/c nude mouse [2]) | thicknesses of epidermis and dermis layers (Balb/c nude mouse [2]) | amount of melanin produced (B16F10 cells; α-MSH (10 uM) alone) | wound treatment effect compared with peptide 1 (Balb/c nude mouse [3]) | wound reduction effect at low concentration (HaCaT cells; HaCaT cells, 1 ng/ml) | wound size effect compared with peptide 1 (HaCaT cells; HaCaT cells, 1 or 10 ng/ml)
1 | – | REGRT (peptide 1) | greatly reduced | significantly increased | increased compared to the control group and the TGF-treated group | significant reduction | increased in a peptide concentration-dependent manner | greatly reduced | actively progressed | larger than those of a PBS negative control group | – | – | – | –
2 | greatly increased | α-MSH [reference compound] | – | – | – | – | – | – | – | – | a large amount of melanin was produced | – | – | –
3 | – | REGRTREGRT (peptide 2) | – | – | – | significant reduction | increased in a peptide concentration-dependent manner | – | actively progressed | larger than those of a PBS negative control group | – | excellent effect as compared to the case treated with the peptide 1 | definite wound reduction effect | more remarkable
